Data from US20250345283A1, “MACROPHAGE-DERIVED ENGINEERED VESICLES FOR TARGETED DELIVERY AND TREATMENT” (University of Kentucky Research Foundation, priority 2020, published 2025).

Legend:
A549 xenograft [1] = experiment: In vivo targeting of DiR-labeled cell-derived vesicles, IVIS imaging; set-up: species or system mouse; settings: tail vein injection, imaging 24 h postinjection
Procedure: Athymic nude mice were injected with A549 cells (NSCLC, immortalized) in the right shoulder and monitored for 3-4 weeks until measurable xenograft tumors were observed. RAW cells were cultured in vitro by standard methods. Cell-derived vesicles were manufactured by the Richards lab as described above and loaded with DiR near-infrared fluorescent dye. Prepared vesicles were administered, and mice were then imaged approximately 24, 48, and 72 hours later. Mice were anesthetized for imaging using isoflurane. Epifluorescence was measured using an IVIS Spectrum In vivo Imaging System (PerkinElmer). Vesicles were labeled with DiR near-infrared fluorescent dye, which was excited at 710 nm, with emission measured at 780 nm. Fluorescent signal intensity (i.e., total radiant efficiency) within regions of interest (ROI) were quantified using Living Image software (PerkinElmer), correcting for background fluorescence using distal site ROI within the same mouse.
RAW264.7 cells (100 million) were scraped in 40 mL of sucrose buffer solution with protease inhibitor. Vesicles were prepared as described above. The cells were labeled using DiR at 2 μM for 30 min at 37° C. Samples were injected intravenously to the mouse, through the tail vein. Approximately 1×10^11 vesicles were delivered per injection. All animal experiments were repeated three times. […]

A549 xenograft [2] = experiment: In vivo delivery of DiR-labeled M1EVs to tumor xenografts, IVIS imaging; set-up: species or system mouse; settings: 2×10^10 vesicles, tail vein, imaging 48 and 72 h post injection
Procedure: A549 cells (1×10^6) were injected subcutaneously into the interscapular region of 6-week-old athymic nude mice. The mice were monitored until palpable xenograft tumors developed greater than 200 mm3. M1EVs were generated using 100 million M1 macrophages by the procedure mentioned above. A NanoSight 300 multiple particle tracking system was used to determine the mean diameter and the concentration of MEVs. M1EVs were then labeled with the DiR near-infrared fluorescent dye. Briefly, 1 μL of 1 mM DiR was added to 199 μL of the vesicle resuspension so that the final concentration of DiR in the vesicle resuspension was 5 µM. DiR-labeled vesicles were separated from free DiR using a size exclusion PD MidiTrap column equilibrated with PBS. 100 μL of DiR-labeled M1EVs was then injected into the lateral tail vein of tumor-bearing mice. Isoflurane gas was used to anesthetize mice for imaging 72 h post injection using an IVIS Spectrum In vivo Imaging System (PerkinElmer) controlled with LivingImage software (PerkinElmer). Epifluorescence images were obtained using 710 nm excitation and 760 nm emission filters, f/stop number 4 and binning factor 4, with a 35 s exposure.
The free dye was separated from MEVs using PD Miniprep columns. […] After the tumor xenograft reached at least 100 mm3, 2×10^10 vesicles were injected through the tail vein of each of the three different mice. […]

M2 macrophages = experiment: Uptake of M1EVs by M2 macrophages in the presence of dynasore; type: cell-based, mouse; settings: Dynasore 80 μM
Procedure: Dynamin activity is an integral component of both endocytosis and phagocytosis. Dynasore, a dynamin inhibitor, has been widely used to study the process of internalization of exosomes from the surface of the macrophage. […] The uptake of fluorescently labeled M1EVs by M2 BMDMs was compared in the presence and absence of dynasore. Dynasore (80 μM) was added to cultured macrophages 20 min prior to the addition of labeled vesicles. M2 macrophages were left to incubate with M1EVs for 2 h and subsequently imaged by wide-field microscopy. […] The integrated density of the fluorescence signal was calculated to compare the uptake of M1EVs by M2 macrophages. […] Similar vesicle uptake control experiments were performed in the presence of the vehicle, DMSO, at an equal concentration. There was no significant effect of DMSO on the M1EV uptake process by M2 macrophages relative to the control with no DMSO or dynasore. Macrophages are well-established phagocytotic cells.

A549 cells = experiment: A549 cell viability (alamar blue) after cisplatin-loaded A549 vesicles or free cisplatin; type: cell-based, human; settings: cisplatin 3 μg
Procedure: A549 cells (60 million) were used to generate vesicles for delivery. Cells were scraped from culture in 20 mL of sucrose buffer containing protease inhibitor. The cell solution was collected in a 50 mL conical tube and pelleted at 2000 rpm at 25° C. for 2 min. The solution was aspirated off, and the pellet was resuspended in 8 mL of 8.33 mM cisplatin in sucrose buffer solution or 20 mg cisplatin/8 mL sucrose buffer solution plus protease inhibitor. The cell solution was fragmented using N2 cavitation at 300 psi at 4° C. for 5 min. The resulting cell slurry was centrifuged at 4000 g for 10 min at 4° C. The supernatant from centrifugation was transferred to a 25 mL ultracentrifuge tube for 10,000 g centrifugation for 20 min at 4° C. The supernatant from the UCF tube was then transferred to a new 25 mL ultracentrifuge tube and centrifuged at 100,000 g for 60 min at 4° C. The pellet in the UCF tube was washed with 500 μL of sucrose solution, and the residual solution was pipetted out and discarded. Seven hundred fifty microliters of sucrose buffer solution was added to the UCF tube, and the pellet was resuspended via pipetting. Empty vesicles were generated in the exact same way except in the absence of cisplatin. A549 cells (30,000) were plated in each well of a 96-well plate and allowed to seed for 24 h. During that time, the growth media was exchanged for 250 μL of fresh HEK media containing either cisplatin in solution (4.17 mM), cisplatin-loaded vesicles, empty vesicles, or untreated media cisplatin solution in HEK media. The media was aspirated off. Two hundred microliters of Optimem was added followed by 20 μL of alamar blue. […] The plate was read using a FlexStation plate reader. […] Cell viability was determined using a fluorescence assay (alamar blue), where the fluorescence intensity scales with the population of live cells. […] Vesicles were then added to A549 cells in culture, and the cell proliferation was compared to cells alone and those in the presence of free cisplatin in solution at the same levels (3 μg) as were measured in the vesicle solution. […]

With `CCCCCCCCCCCCCCCCCCN1/C(=C/C=C/C=C/C=C/C2=[N+](CCCCCCCCCCCCCCCCCC)c3ccccc3C2(C)C)C(C)(C)c2ccccc21.[I-]` [DiR] the “localisation of DiR fluorescence in tumor-bearing mice” value (A549 xenograft [1]) was “nonspecific accumulation” and the “localisation of DiR fluorescence in tumor-bearing mice” value (A549 xenograft [2]) was “nonspecific accumulation”.
For `O=C(N/N=C/c1ccc(O)c(O)c1)c1cc2ccccc2cc1O` [Dynasore], the “effect on cell viability of macrophages” value (M2 macrophages) was “no effect on the cell viability” and the “reduction in uptake of vesicles relative to the control” value (M2 macrophages; M1EVs with M2 macrophages 2 h) was 64%.
With `N.N.[Cl][Pt][Cl]` [free cisplatin, cisplatin] the A549 cell death (A549 cells; 24 h) was “no apparent cell death”, the A549 cell death (A549 cells; 48 h) was 15% and the A549 cell death (A549 cells; 72 h) was 50%.
